Assay results: paper PMC5872150 (ACS chemical neuroscience, 2017)
Where a name gives a salt, the structure may show the parent alone. Read-outs that look alike come from different tables or passages of the source.

Experiments:
CHO-hM1 cells = experiment: Ca2+ assay features: Fluo-4 fluorescent signal of CHO-hM1 cells; format: cell-based, Chinese hamster; details: bath application
[1] = tested on: pilocarpine-induced seizures in C57BL/6 mice; experiment: Pilocarpine-induced seizures; format: in vivo, mouse
human M1 mAChR = target: T1, human M1 mAChR (Homo sapiens, UniProt P11229)
T1 sequence (P11229 1-460): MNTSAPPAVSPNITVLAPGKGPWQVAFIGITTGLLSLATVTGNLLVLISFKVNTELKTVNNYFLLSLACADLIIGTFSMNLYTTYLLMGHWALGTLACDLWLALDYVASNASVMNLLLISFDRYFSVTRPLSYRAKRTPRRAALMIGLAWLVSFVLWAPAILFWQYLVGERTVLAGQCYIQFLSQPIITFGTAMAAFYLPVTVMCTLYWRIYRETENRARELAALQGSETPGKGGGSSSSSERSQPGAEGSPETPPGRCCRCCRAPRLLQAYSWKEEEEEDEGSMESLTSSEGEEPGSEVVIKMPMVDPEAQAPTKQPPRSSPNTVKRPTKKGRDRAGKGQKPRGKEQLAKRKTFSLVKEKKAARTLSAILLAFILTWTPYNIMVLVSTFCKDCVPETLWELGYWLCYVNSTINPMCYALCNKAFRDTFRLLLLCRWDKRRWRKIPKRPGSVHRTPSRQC

[2] = tested on: pilocarpine-induced total fluid secretion in C57BL/6 mice; details: s.c., pilocarpine 50 mg/kg i.p.
human α7 nAChR = human α7 nAChR (Homo sapiens, UniProt P36544); details: for inhibition of acetylcholine-induced inward current: acetylcholine 1 mM
Sequence of human α7 nAChR (P36544 23-502): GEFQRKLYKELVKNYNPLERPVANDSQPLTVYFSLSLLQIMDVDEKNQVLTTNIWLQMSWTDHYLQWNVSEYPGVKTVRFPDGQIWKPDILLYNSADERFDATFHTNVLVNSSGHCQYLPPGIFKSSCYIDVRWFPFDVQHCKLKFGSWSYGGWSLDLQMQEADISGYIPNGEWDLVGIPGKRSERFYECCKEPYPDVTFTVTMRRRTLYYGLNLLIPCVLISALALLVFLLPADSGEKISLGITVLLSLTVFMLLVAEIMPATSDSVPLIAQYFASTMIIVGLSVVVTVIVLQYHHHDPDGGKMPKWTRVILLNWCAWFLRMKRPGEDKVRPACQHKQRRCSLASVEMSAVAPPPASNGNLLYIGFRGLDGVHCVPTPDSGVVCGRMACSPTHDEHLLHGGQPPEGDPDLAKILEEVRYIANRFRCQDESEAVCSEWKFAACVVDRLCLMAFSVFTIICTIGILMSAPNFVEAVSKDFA

In the case of Nc1ncnc2c1ncn2[C@@H]1O[C@H](COP(=O)(O)OP(=O)(O)OP(=O)(O)O)[C@@H](O)[C@H]1O [ATP], the “effect on Ca2+-dependent fluorescent counts” value (CHO-hM1 cells; ATP 100 μM) is reported as “rapidly increased the fluorescent counts”.
In the case of C/C=C(/C)C(=O)O[C@H]1C(C)=C2[C@H]([C@@H]1OC(=O)CCCCCCC)[C@@](C)(OC(C)=O)C[C@H](OC(=O)CCC)[C@@]1(O)[C@H]2OC(=O)[C@@]1(C)O [Thapsigargin], the “effect on Ca2+-dependent fluorescent counts” value (CHO-hM1 cells; thapsigargin 1 μM) is reported as “smaller and slower increase in the fluorescent counts”.
For CN1[C@@H]2CC[C@H]1C[C@@H](OC(=O)C(CO)c1ccccc1)C2 (some centres unmarked) [atropine sulfate, Atropine sulfate monohydrate, reference compound], the “effect on pilocarpine-induced seizures” value ([1]; 3 mg/kg s.c. 25 min before pilocarpine 278 mg/kg) was “blocked the development of seizures in every mouse”.
With ethylatropine bromide the “fold less potent than atropine at human M1 muscarinic receptors” value (human M1 mAChR) was “approximately 3.3 fold”, the “approximate IC50 for attenuation of pilocarpine-induced total secretion” value [2] was roughly 0.3 mg/kg and the “time to behavior score 3 after pilocarpine administration” value ([1]; 100 mg/kg s.c. 25 min before pilocarpine 278 mg/kg, all six mice) was no more than 30 min. The “effect on pilocarpine-induced seizures” value ([1]; 100 mg/kg s.c. 25 min before pilocarpine 278 mg/kg, six mice) was “experienced at least one tonic seizure”, the “inhibition of acetylcholine-induced inward current” value (“inhibition” below) (human α7 nAChR; 3 μM, n = 3) was 1.2 ± 8% and the “inhibition” value (human α7 nAChR; 30 μM, n = 5) was 29 ± 3%. For the same compound, the “inhibition” value (human α7 nAChR; 300 μM, n = 4) was 46 ± 2% and the “fold less potent than atropine sulfate at α7 nicotinic receptors” value (human α7 nAChR; ratio of estimated IC50s) was roughly 300 fold.
